Test results published in US20250296961A1, “ANTIMICROBIAL PEPTIDES FOR REMINERALIZATION OF TEETH AND PREVENTION OF DENTAL CARIES” (The University of Hong Kong, priority 2021, published 2025).
Like-named read-outs stand apart in the source and are kept apart here. Residues, ends and D or L forms follow the SMILES beside them. No end group written: not given here. *: point of attachment. 3,4‑dihydroxyphenethylamine = Oc1ccc(CCN*)cc1O

How the values were obtained:
[1] = Adsorption capacity assay: peptides with HA particles (Micro BCA); assay type: binding; settings: for Concentration change (95% CI): initial vs final concentration with HA particles; for Final concentration (Mean ± SD): peptide solution mixed with HA particles (20 mg/tube), overnight 37° C.
Procedure: The adsorption of P-113, P-113-DPS, P-113-DA, and P-113-SK to HA particles (Sigma Chemical Co., St Louis, USA) was measured using the Micro BCA method with Sp-H5 as the control group. Solutions of P-113, P-113-DPS, P-113-DA, P-113-SK and Sp-H5 in 10 mM HEPES buffer (pH 7) were diluted to 10 nmol/mL concentrations, and 200 μL was placed into each tube (P-113, N=10; P-113-DPS, N=10; P-113-DA, N=10; P-113-SK, N=10; and Sp-H5, N=10). Peptide solutions were mixed with (n=5) or without (n=5) HA particles (20 mg/tube) in each group. Tubes were placed onto a rotator overnight at 37° C. for complete reaction. Tubes containing the peptide solution and HA were centrifuged (13000 rpm, 1 min) and the supernatant collected. Bovine serum albumin (BSA) standard solutions (working range=5-250 μg/mL) and working reagent were prepared using the Pierce BCA Protein Assay Kit (Rockford, IL, USA). Working reagents (100 μL/well) were added to a 96-well plate, followed by standard and peptide solutions (100 μL/well). The Plate was incubated in the dark for 30 min and the absorbance (562 nm) measured using a plate reader. The concentration (C) of the BSA standard solution was linear with the absorbance (A) at 562 nm. The function of C=a*A+b was determined (a and b as constants). The final concentration (the peptide solution mixed with HA) and the initial concentration (the peptide solution without HA) were computed using the function and the generated absorbance data of the peptide solution mixed with and without HA.

[2] = Demineralization assay of peptide-coated enamel (Example 1); parameters: species or system human; settings: for Maximum lesion depth: 8 μmol/mL coating, MicroCT
Procedure: (§1) 3×3×1.5 mm^3 (number: 197) tooth slices were prepared using a water-cooled diamond saw (IsoMet low-speed saw, Buehler, Lake Bluff, IL, USA). One working surface of complete enamel tissue from each tooth slice was generated using the MicroCT Skyscan 1172 (Bruker MicroCT, Kontich, Belgium). The enamel working side of the tooth slice was polished and other sides marked with acid-proof nail polish. All tooth slices were cleaned and stored in deionized water at 4° C.
Tooth slices (N=30) were immersed in 8 μmol/mL P-113, P-113-DPS, P-113-DA, P-113-SK, Sp-H5 (n=5 for each) solutions (in 10 mM HEPES) or HEPES (control) overnight. Tooth slices were incubated in 2 mL demineralization solution (2.2 mM CaCl2), 2.2 mM NaH2PO4, 0.05 M acetic acid, pH 4.5) for 7 days at 37° C. Lesions depths were analyzed by MicroCT Skyscan 1172. Mineral calcium (Ca) or phosphorus (P) concentrations before and after immersion were measured using Inductively Coupled Plasma Optical Emission Spectrometer (ICP-OES; Spectro Arcos, Kleve, Germany). Ca/P loss was expressed as mM/cm^2. The mean values of Ca/P loss were analyzed for each group using ANOVA at the 1% c significance level.

S. mutans [3] = test: Anti-bacterial adhesion ability on peptide-coated enamel (Example 1); assay type: cell-based, Streptococcus mutans (ATCC 35668); settings: 32 μmol/mL coated, 5 h incubation
Procedure: (§2) Streptococcus mutans (ATCC 35668, ATCC, Manassas, USA) were cultured in Horse Blood Medium under anaerobic (85% N2, 10% H2, and 5% CO2) conditions at 37° C. Cells were harvested by centrifugation (5000 rpm, 10 min), washed once with 10 mM sodium phosphate-buffered saline (PBS, pH 7.2), and resuspended in brain-heart infusion broth (BHI, Difco Laboratories, Detroit, USA) at a concentration of 10^6 CFU/mL.
After overnight incubation, they were placed in a 96-well plate, followed by 200 μL S. mutans in BHI (10^6 CFU/mL) and incubation at 37° C. for 5 h. Tooth slices were washed once with PBS, one tooth slice at random from each group was stained, and fluorescence images obtained by CLSM. Separate tooth slices were used for CFU counting. Three independent biofilm experiments were performed.

S. mutans biofilms = assay type: cell-based; settings: for S. mutans killed (biofilm) / Viability counts of S. mutans biofilms: 24 h exposure
Procedure: as §2
S. mutans biofilms were cultured on enamel working surfaces in a 96-well plate. Tooth slices (N=32) were autoclave-sterilized prior to anti-biofilm activity testing. 200 μL S. mutans in BHI (10^6 CFU/mL) was added to each well. After a 24-h incubation at 37° C., each tooth slice was washed once with PBS. […] (in 10 mM HEPES). After incubation, tooth slices were washed once with PBS. One tooth slice at random in each group was stained with the LIVE/DEAD BacLight Bacterial Viability Kit (L7012, Thermo Fisher Scientific, Waltham, USA) and incubated in the dark for 30 min. Fluorescence images were obtained using confocal laser scanning microscopy (CLSM, Fluoview 1000, Olympus, USA). A separate tooth slice was used for the counting of colony-forming units (CFU). Tooth slices were placed in 1 mL BHI solution, and adherent biofilms were removed from the enamel surfaces by sonication for 30 sec. Ten-fold serial dilutions of the suspensions were plated in duplicate on horse blood agar. CFU's were counted after 48-h incubation. Three independent biofilm experiments were performed.

[4] = Remineralization assay of peptide-coated enamel (Example 1); parameters: species or system human; settings: 8 μmol/mL coating, remineralization solution 24 h, FE-SEM
Procedure: as §1
The enamel working surface of tooth slices (N=30) was acid-etched in 37% phosphoric acid for 1 min and rinsed with deionized water for 1 min. The slices were immersed in 8 μmol/mL P-113, P-113-DPS, P-113-DA, P-113-SK, Sp-H5 (n=5 for each) solutions (in 10 mM HEPES) or HEPES (control) overnight. All tooth slices were incubated in 7 mL remineralization solution (2.58 mM CaCl2)·2H2O, 1.55 mM KH2PO4, 10 mg/L NaF, 180 mM NaCl, 50 mM Tris-HCl, pH 7.6) for 24 h. The enamel surface and cross-section morphology were analyzed by FE-SEM (Hitachi, S4800). Ca/P concentrations in the solutions before and after immersion were calculated by ICP-OES. The mean values for Ca/P gain were analyzed using ANOVA at the 1‰ significance level.

S. mutans [5] = test: Anti-planktonic bacterial ability, MIC and MBC (Example 1); assay type: cell-based, Streptococcus mutans (ATCC 35668); settings: for MIC: 24 h
Procedure: as §2
Two-fold serial dilutions (in 10 mM HEPES) of P-113, P-113-DPS, P-113-DA, P-113-SK, and Sp-H5 prepared in 25% BHI medium were pipetted into a 96-well cell culture plate at final concentrations from 0.125-128 μmol/mL [100 μL/well]. Each well was seeded with 10 μL bacterial suspension at a final concentration of 10^6 CFU/mL. Sp-H5 with bacterial cells and 25% BHI medium with and without bacterial cells in 10 mM HEPES buffer (pH 7) were used as the positive, negative, and blank control group, respectively. After a 24-h incubation, absorbance was measured at 595 nm using a microplate reader to assess cell growth. […] The minimal bactericidal concentration (MBC) was defined as the lowest concentration of peptide resulting in no colony formation on agar plates after incubation. 10 μL of cell suspension from each well were plated on horse blood agar plates and incubated at 37° C. for 48 h. All determinations were conducted in triplicate experiments.

MC3T3-E1 cells [6] = test: Cytocompatibility test, CCK-8 (Example 2); parameters: Cytocompatibility: key to the marks not given beside the values
in vitro [7] = settings: human, human saliva (centrifuged, filtered supernatant)
Procedure: (§3) The collected saliva samples were centrifuged at 12,000 rpm for 20 min^21]. The supernatant was filtered to remove any debris. […] At 0, 0.5, 1, 2, 4, and 6 h, 40 uL solutions were taken from each sample and were analysed by High Performance Liquid Chromatography (HPLC-UV, 1525 Binary HPLC Pump, 2489 UV/Visible Detector, Waters, USA).

[8] = for Peptide concentration incubated in human saliva: 37° C.; for Stability: summary grade
Procedure: as §3

MC3T3-E1 cells [9] = test system: MC3T3-E1 cells
Procedure: (§4) Cells exposed to α-MEM without peptide was the control group. Cells viability after peptide exposure was evaluated by cell survival rate using Cell Counting Kit-8 assay (CCK-8 assay, Sigma-Aldrich, St. Louis, USA).

in vitro [10] = settings: mouse, MC3T3-E1 cells
Procedure: as §4

[11] = demineralization solution 7 days

Molecule | Concentration change (95% CI) [1] | Final concentration (Mean ± SD) [1] [nM mL^−1] | Maximum lesion depth [2, 11] [μm] | Thickness of the regenerated crystal layer on the enamel surface [4] [μm] | MBC (S. mutans [5]) [μM mL^−1] | MIC (S. mutans [5]) [μM mL^−1] | remaining at 6 h, 1 mg mL^−1 (in vitro [7]) [%] | Peptide concentration incubated in human saliva ([8]; 0 h) [mg/mL] | Peptide concentration incubated in human saliva ([8]; 0.5 h) [mg/mL] | Peptide concentration incubated in human saliva ([8]; 1 h) [mg/mL] | Peptide concentration incubated in human saliva ([8]; 2 h) [mg/mL] | Peptide concentration incubated in human saliva ([8]; 4 h) [mg/mL] | Peptide concentration incubated in human saliva ([8]; 6 h) [mg/mL] | Stability [8] | other results
phosphoserine-DSHAKRHHGYKRKFHEKHHSHRGY (SDSHAKRHHGYKRKFHEKHHSHRGY; N-terminal phosphoserine; MOD_RES 1 Serine is phosphorylated) [Sp-H5, phosphoserine-histatin 5, used as control group] | 3.27 (2.92-3.58) | 6.73 ± 0.12 | 85 | 6 | 32 | 8 |  |  |  |  |  |  |  |  | Ca and P loss from coated enamel slices (ICP-OES) ([2]; vs P-113-, P-113-DA-, P-113-SK-coated or non-coated slices, P<0.001): decreased significantly; Viable counts of S. mutans on peptide-coated enamel surfaces (S. mutans [3]): 2.04E+05 CFU/mL; S. mutans killed (biofilm) (S. mutans biofilms; 128 μmol/mL): Approximately 99%; Viability counts of S. mutans biofilms (S. mutans biofilms; 128 μmol/mL): 2.0E+04 CFU/mL
AKRHHGYKRKFH-D-3,4-dihydroxyphenethylamine (AKRHHGYKRKFHD-{3,4‑dihydroxyphenethylamine}; not fully specified; printed as AKRHHGYKRKFH-D-3,4-dihydroxyphenethylamine) [Peptide P-113-DA] | −0.17 (−0.55-0.40) | 10.05 ± 0.99 | 110 | 7 | 32 | 16 |  |  |  |  |  |  |  |  | Ca losses vs control group [2, 11]: Significant differences were not detected; S. mutans killed (biofilm) (S. mutans biofilms; 64 μmol/mL): Approximately 99%; Viability counts of S. mutans biofilms (S. mutans biofilms; 64 μmol/mL): 6.04E+05 CFU/mL; CLSM live/dead state of S. mutans biofilm (S. mutans biofilms; 64 and 128 μmol/mL, 24 h): the majority of S. mutans were dead
TFFRLFNRAKRHHGYKRKFH [Peptide C8-P-113] |  |  |  |  |  |  | 11.9 | 1 | 0.9531 | 0.8602 | 0.4977 | 0.3578 | 0.119 | − | Concentrations with no significant differences in cell survival rates compared to the control group (MC3T3-E1 cells [6]; MC3T3-E1, 24 h, ½×MBC, MBC and 2×MBC tested): all concentrations; Cytocompatibility (MC3T3-E1 cells [6]; summary grade): ++
CC(C)C[C@H](NC(=O)[C@H](CCCNC(=N)N)NC(=O)[C@H](Cc1ccccc1)NC(=O)[C@H](Cc1ccccc1)NC(=O)[C@@H](NC(=O)[C@H](COP(=O)(O)O)NC(=O)[C@@H](N)COP(=O)(O)O)[C@@H](C)O)C(=O)N[C@@H](Cc1ccccc1)C(=O)N[C@@H](CC(N)=O)C(=O)N[C@@H](CCCNC(=N)N)C(=O)N[C@@H](C)C(=O)N[C@@H](CCCCN)C(=O)N[C@@H](CCCNC(=N)N)C(=O)N[C@@H](Cc1c[nH]cn1)C(=O)N[C@@H](Cc1c[nH]cn1)C(=O)NCC(=O)N[C@@H](Cc1ccc(O)cc1)C(=O)N[C@@H](CCCCN)C(=O)N[C@@H](CCCNC(=N)N)C(=O)N[C@@H](CCCCN)C(=O)N[C@@H](Cc1ccccc1)C(=O)N[C@@H](Cc1c[nH]cn1)C(=O)O [DPS-C8-P-113] (HELM PEPTIDE1{[N[C@@H](COP(=O)(O)O)C(=O)[*:2]].[O=C([C@H](COP(=O)(O)O)N[*:1])[*:2]].T.F.F.R.L.F.N.R.A.K.R.H.H.G.Y.K.R.K.F.H}$$$$V2.0) |  |  |  |  |  |  | 56.2 | 1 | 0.9818 | 0.9785 | 0.9504 | 0.5388 | 0.562 | ++ | Cytocompatibility (MC3T3-E1 cells [9]): +; viability at 24 h, 2 ×MBC (in vitro [10]): 48%
